Test results from patent US11458144B1, “Methods for using 5-HMF analogs with increased solubility to inhibit or reverse RBC sickling” (King Abdulaziz University, priority 2021, dated 2022).
Where two headings read alike, the source gives them in different places. Each block holds one compound with its values, some of them ahead of it.

Columns and labels:
CYP1A2 = target: T1, CYP1A2 (Homo sapiens, UniProt P05177); assay: In vitro CYP inhibition, pooled human liver microsomes; format: in vitro ADME; conditions: substrate Tacrine
T1 construct: using pooled human liver microsomes as previously published; from tissue; host or cells: pooled human liver microsomes
T1 sequence (P05177 1-516): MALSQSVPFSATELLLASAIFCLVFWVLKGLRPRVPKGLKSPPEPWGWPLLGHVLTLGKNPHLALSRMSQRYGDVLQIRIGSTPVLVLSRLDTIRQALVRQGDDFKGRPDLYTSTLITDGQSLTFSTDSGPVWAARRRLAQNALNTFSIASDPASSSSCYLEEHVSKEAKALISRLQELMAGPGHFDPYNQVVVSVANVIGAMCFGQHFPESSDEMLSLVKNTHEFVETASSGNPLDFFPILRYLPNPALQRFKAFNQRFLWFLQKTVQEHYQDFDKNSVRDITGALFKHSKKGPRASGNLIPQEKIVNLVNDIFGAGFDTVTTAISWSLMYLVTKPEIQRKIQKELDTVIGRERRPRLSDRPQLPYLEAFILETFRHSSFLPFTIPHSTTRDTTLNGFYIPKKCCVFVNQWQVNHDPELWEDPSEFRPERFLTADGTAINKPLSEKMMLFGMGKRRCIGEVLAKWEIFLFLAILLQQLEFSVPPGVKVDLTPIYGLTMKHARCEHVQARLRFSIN
Method: (§1) The probe substrates include tacrine (CYP1A2), amodiaquine (CYP2C8), tolbutamide (CYP2C9), mephenytoin (CYP2C19), dextromethorphan (CYP2D6), midazolam (CYP3A4), testosterone (CYP3A4), and bupropion (CYP2B6). […] The assays were performed in duplicate in 96-well plates at 37° C. for 10-60 minutes. The reaction was terminated with addition of methanol, followed by incubation at 4° C. for 10 min and centrifuged at 4° C. for 10 min.

CYP2C8 = target: T2, CYP2C8 (Homo sapiens, UniProt P10632); assay: as above; format: in vitro ADME; conditions: substrate Amodiaquine
T2 construct: using pooled human liver microsomes as previously published; from tissue; host or cells: pooled human liver microsomes
T2 sequence (P10632 1-490): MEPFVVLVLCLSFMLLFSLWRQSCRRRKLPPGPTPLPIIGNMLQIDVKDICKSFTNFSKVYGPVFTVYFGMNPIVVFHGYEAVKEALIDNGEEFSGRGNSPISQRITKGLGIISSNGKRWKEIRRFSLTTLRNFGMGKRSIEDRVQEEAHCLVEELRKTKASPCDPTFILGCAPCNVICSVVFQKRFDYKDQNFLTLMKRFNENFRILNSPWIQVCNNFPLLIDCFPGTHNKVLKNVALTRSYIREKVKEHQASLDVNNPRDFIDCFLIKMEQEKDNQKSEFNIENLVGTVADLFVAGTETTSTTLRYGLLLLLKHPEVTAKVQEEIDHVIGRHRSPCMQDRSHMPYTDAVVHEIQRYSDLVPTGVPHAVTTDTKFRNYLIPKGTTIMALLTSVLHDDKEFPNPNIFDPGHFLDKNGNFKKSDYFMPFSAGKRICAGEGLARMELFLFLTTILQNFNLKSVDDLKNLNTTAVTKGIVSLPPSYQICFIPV
Method: as §1

Hb [1] = target: T3, Hb (Homo sapiens, UniProt P68871+P69905, E7V); assay: Oxygen equilibrium study (P50 shift) of lysates from SS blood, Hemox Analyzer; format: cell-based; conditions: SS RBCs
T3 construct: Using homozygous sickle (SS) blood from patients; endogenous in cells; host or cells: red blood cells of homozygous SS patient blood (hematocrit 20%); clarified lysates measured after incubation
Method: (§2) The effect of the MMA compounds and positive control 5-HMF on RBC sickling, Hb modification, and Hb oxygen equilibrium was studied utilizing SS blood following previous procedure.^[27]
For the oxygen equilibrium study, about 100 μL aliquot of clarified lysate of residual samples from the above antisickling study was added to 4 mL of 0.1 M potassium phosphate buffer, pH 7.0, in cuvettes and subjected to hemoximetry analysis using Hemox™ Analyzer (TCS Scientific Corp., New Hope, Pa.) to assess P50 shift, which is the partial pressure of oxygen (PO2) at which 50% of Hb is saturated with oxygen (SO2). Degree of Hb O2 affinity shift (ΔP50) was expressed as percentage fractions of control DMSO-treated samples.
(§3) Using homozygous sickle (SS) blood from patients, the MMA compounds (MMA502, MMA503, MMA504, MMA505, and MMA509 were tested with 5-HMF as control for Hb adduct formation, effect on Hb affinity for oxygen and corresponding antisickling activities (RBC morphology study) using previously published protocols.^14,15

Hb [2] = target: T3, Hb; assay: Hb adduct formation (Hb modification) by cation-exchange HPLC, SS blood lysates; format: binding; conditions: SS RBCs
Text: as §2
The Hb adduct formation study also used clarified lysates that were subjected to a cation-exchange HPLC (Hitachi D-7000 Series, Hitachi Instruments, Inc., San Jose, Calif.), and a weak cation-exchange column (Poly CAT A: 30 mm×4.6 mm, Poly LC, Inc., Columbia, Md.).
as §3

[3] = tested on: human cytochrome P450 (CYP) enzymes; assay: In vitro CYP inhibition, panel of seven enzymes (overall statement); format: in vitro ADME; conditions: 0.1 to 100 μM; pooled human liver microsomes
Method: as §1

SS RBCs = assay: Antisickling study (RBC morphology) in SS blood under hypoxia; format: cell-based, human; conditions: 2 mM; for inhibition at 2000 µM: Homo sapiens, read-out: % Sickling inhibition
Method: as §2
For the antisickling study, SS blood (hematocrit 20%) were incubated under air in the absence or presence of all the MMA compounds (0.5 mM, 1 mM and 2 mM) at 37° C. for 1 h, followed by incubating the mixture under hypoxic conditions (2.5% O2) at 37° C. for 2 h. Aliquots with fixed 2% glutaraldehyde solution and under anaerobic condition were subjected to microscopic morphological analysis.^[11]
as §3

HbA = target: T4, HbA (Homo sapiens, UniProt P68871+P69905); assay: Time-dependent Hb oxygen equilibrium study in normal whole blood; format: cell-based; conditions: 2 mM, 20% hematocrit
T4 construct: time-dependent P50-shift of HbA in normal blood (20% hematocrit); endogenous in cells; host or cells: red blood cells in normal whole blood of adult donors (hematocrit 20%)
Method: The time-dependent effect of the MMA compounds and positive control 5-HMF on Hb oxygen affinity was studied using normal blood following previous procedure.^[15] Briefly, normal blood samples (hematocrit 20%) were incubated with the compounds at 37° C. for 24 h. Aliquots were taken at various time points and incubated in IL 237 tonometers (Instrumentation Laboratories, Inc. Lexington, Mass.) for 10 minutes at 37° C., and allowed to equilibrate at oxygen tensions 6, 20, and 40 mmHg. The samples were then aspirated into an ABL 700 Automated Blood Gas Analyzer (Radiometer) to determine the pH, partial pressure of CO2 (pCO2), partial pressure of oxygen (pO2), and Hb oxygen saturation values (SO2). The measured values of pO2 (mmHg) and SO2 at each pO2 value were then subjected to a non-linear regression analysis using the program Scientist (Micromath, Salt Lake City, Utah) to estimate P50 as previously reported.^[28]
5-HMF has a short half-life and poor oral bioavailability due to this metabolic instability, which in part prevented its development for chronic use. Nonetheless, this metabolic instability could be advantageous for parenteral formulation for acute use. […] Briefly, blood samples (hematocrit 20%) were incubated with the compounds at 37° C. for 24 h, and aliquots were taken at the various time points and used to determine the PO2 and SO2 using ABL 800 Automated Blood Gas Analyzer (Radiometer), and to estimate P50 as previously reported.^[10]
The study confirmed the trend in the biological potencies observed with SS blood.

CYP2C9 = CYP2C9 (Homo sapiens, UniProt P11712); assay: In vitro CYP inhibition, pooled human liver microsomes
Method: as §1

CYP2B6 = target: T5, CYP2B6 (Homo sapiens, UniProt P20813); assay: as above
T5 sequence (P20813 1-491): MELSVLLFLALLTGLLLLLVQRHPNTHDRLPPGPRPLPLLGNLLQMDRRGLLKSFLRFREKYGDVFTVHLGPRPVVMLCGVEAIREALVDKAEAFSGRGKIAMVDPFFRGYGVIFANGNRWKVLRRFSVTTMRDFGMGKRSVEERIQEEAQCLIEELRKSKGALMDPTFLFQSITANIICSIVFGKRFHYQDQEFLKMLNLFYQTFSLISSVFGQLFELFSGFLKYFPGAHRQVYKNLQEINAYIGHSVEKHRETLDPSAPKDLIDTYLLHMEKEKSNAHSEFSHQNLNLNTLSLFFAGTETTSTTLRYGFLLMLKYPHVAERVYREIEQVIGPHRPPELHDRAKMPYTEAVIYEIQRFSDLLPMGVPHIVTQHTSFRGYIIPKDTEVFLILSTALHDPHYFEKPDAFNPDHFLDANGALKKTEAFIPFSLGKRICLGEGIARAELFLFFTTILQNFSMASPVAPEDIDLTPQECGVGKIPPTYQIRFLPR
Method: as §1

CYP2C19 = CYP2C19 (Homo sapiens, UniProt P33261); assay: as above
Method: as §1

CYP2D6 = CYP2D6 (Homo sapiens, UniProt P10635); assay: as above
Method: as §1

CYP3A4 = CYP3A4 (Homo sapiens, UniProt P08684); assay: as above
Method: as §1

[4] = SS blood hematocrit 20%, 2.5% O2, 37° C.

SMILES: O=Cc1ccc(CO)o1 [Compound 5-HMF, 5-hydroxymethylfurfural, reference compound]
IC50 (CYP1A2): > 100 µM
IC50 (CYP2C8): > 100 µM
% Hb-O2 affinity (P50 shift vs DMSO control) (Hb [1]; 2 mM): 27%
% Hb-O2 affinity (P50 shift vs DMSO control) (Hb [1]; 2 mM, listed as 5HMF): 27.2 ± 4.9%
% Hb-modification (adduct formation) (Hb [2]; 2 mM): 33%
% Hb-modification (adduct formation) (Hb [2]; 2 mM, listed as 5HMF): 33.8 ± 11.7%
inhibition of liver CYP isozymes [3]: no inhibition
% Sickling inhibition (SS RBCs; [4]): 21.4 ± 0.0%
inhibition at 2000 µM (SS RBCs; [4]): 21%
%P50 shift (HbA; at 3 hours): 35%
IC50 (CYP2C9): > 100 µM
IC50 (CYP2B6): > 100 µM
IC50 (CYP2C19): > 100 µM
IC50 (CYP2D6): > 100 µM
IC50 (CYP3A4): > 100 µM
IC50 (CYP3A4; human, microsomes, pH 7.4): > 100 µM

% Hb-O2 affinity (P50 shift vs DMSO control) (Hb [1]; 0.5 mM): 4.4 ± 5.1%
% Hb-O2 affinity (P50 shift vs DMSO control) (Hb [1]; 1 mM): 5.3 ± 1.5%
% Hb-O2 affinity (P50 shift vs DMSO control) (Hb [1]; 2 mM, listed as 504): 2.7 ± 1.2%
% Hb-O2 affinity (P50 shift vs DMSO control) (Hb [1]; 2 mM, listed as MMA504): 3%
% Hb-modification (adduct formation) (Hb [2]; 0.5 mM): 0.0 ± 0.0%
% Hb-modification (adduct formation) (Hb [2]; 1 mM): 0.0 ± 1.0%
% Hb-modification (adduct formation) (Hb [2]; 2 mM, listed as 504): 0.4 ± 0.8%
% Hb-modification (adduct formation) (Hb [2]; 2 mM, listed as MMA504): < 1%
SMILES: O=Cc1ccc(N2CCC(O)CC2)o1 [MMA-504, 5-(4-hydroxypiperidin-1-yl)furan-2-carbaldehyde]
inhibition at 2000 µM (SS RBCs; [4]): 27%

% Hb-O2 affinity (P50 shift vs DMSO control) (Hb [1]; 0.5 mM): 5.5 ± 1.2%
% Hb-O2 affinity (P50 shift vs DMSO control) (Hb [1]; 1 mM): 14.6 ± 2.1%
% Hb-O2 affinity (P50 shift vs DMSO control) (Hb [1]; 2 mM, listed as 505): 32.0 ± 3.0%
% Hb-O2 affinity (P50 shift vs DMSO control) (Hb [1]; 2 mM, listed as MMA505): 40%
% Hb-modification (adduct formation) (Hb [2]; 0.5 mM): 4.2 ± 1.6%
% Hb-modification (adduct formation) (Hb [2]; 1 mM): 10.4 ± 2.6%
% Hb-modification (adduct formation) (Hb [2]; 2 mM, listed as 505): 26.7 ± 6.0%
% Hb-modification (adduct formation) (Hb [2]; 2 mM, listed as MMA505): 27%
%P50 shift (HbA; at 1 hour): 11%
duration of effect on Hb oxygen affinity (HbA; time course 0-8 hrs): completely losing activity after 3 hours
SMILES: N#Cc1ccc(C=O)o1 [MMA-505, 5-formylfuran-2-carbonitrile]
antisickling activity relative to 5-HMF (SS RBCs; over 5-HMF): ~2.5 fold
inhibition at 2000 µM (SS RBCs; [4]): 55%
